How the values were obtained:
Assay type in all cases: in vivo
[1] = test system: Frankliniella occidentalis (Western Flower Thrips); experiment: Activity against Frankliniella occidentalis, sprayed sunflower leaf discs; conditions: foliar, 168 h, application rate of 200 ppm, population of mixed ages, 7 days after infestation
Procedure: Sunflower leaf discs were placed on agar in 24-well microtiter plates and sprayed with aqueous test solutions prepared from 10,000 DMSO stock solutions. After drying the leaf discs were infested with a Frankliniella population of mixed ages. The samples were assessed for mortality 7 days after infestation.

[2] = test system: Euschistus heros(Neotropical Brown Stink Bug); experiment: Activity against Euschistus heros, sprayed soybean leaf; conditions: 120 h, application rate of 200 ppm, N-2 nymphs, 5 days after infestation, read-out: effect in at least one of the two categories (mortality or growth inhibition)
Procedure: Soybean leaf on agar in 24-well microtiter plates were sprayed with aqueous test solutions prepared from 10,000 ppm DMSO stock solutions. After drying the leaf were infested with N-2 nymphs. The samples were assessed for mortality and growth inhibition in comparison to untreated samples 5 days after infestation.

[3] = test system: Plutella xylostella (Diamond Back Moth); experiment: Activity against Plutella xylostella, treated artificial diet; conditions: 120 h, application rate of 200 ppm, L2 larvae, 5 days after infestation, read-out: effect in at least one of the two categories (mortality or growth inhibition)
Procedure: 24-well microtiter plates with artificial diet were treated with aqueous test solutions prepared from 10,000 ppm DMSO stock solutions by pipetting. After drying, the plates were infested with L2 larvae (10 to 15 per well). The samples were assessed for mortality and growth inhibition in comparison to untreated samples 5 days after infestation.

[4] = test system: Diabrotica Balteata (Corn Root Worm); experiment: Activity against Diabrotica balteata, sprayed maize sprouts; conditions: 96 h, application rate of 200 ppm, L2 larvae, 4 days after infestation, read-out: effect in at least one of the two categories (mortality or growth inhibition)
Procedure: Maize sprouts, placed on an agar layer in 24-well microtiter plates were treated with aqueous test solutions prepared from 10,000 ppm DMSO stock solutions by spraying. After drying, the plates were infested with L2 larvae (6 to 10 per well). The samples were assessed for mortality and growth inhibition in comparison to untreated samples 4 days after infestation.

[5] = test system: Spodoptera littoralis (Egyptian Cotton Leaf Worm); experiment: Activity against Spodoptera littoralis, sprayed cotton leaf discs; conditions: foliar, 72 h, application rate of 200 ppm, L1 larvae, 3 days after infestation, read-out: control (at least one of mortality, anti-feedant effect, and growth inhibition)
Procedure: Cotton leaf discs were placed on agar in 24-well microtiter plates and sprayed with aqueous test solutions prepared from 10,000 ppm DMSO stock solutions. After drying the leaf discs were infested with five L1 larvae. The samples were assessed for mortality, anti-feedant effect, and growth inhibition in comparison to untreated samples 3 days after infestation. Control of Spodoptera littoralis by a test sample is when at least one of mortality, anti-feedant effect, and growth inhibition is higher than the untreated sample.

[6] = test system: Spodoptera littoralis (Egyptian Cotton Leaf Worm); experiment: Activity against Spodoptera littoralis, systemic via lettuce grown on treated agar; conditions: 144 h, test rate of 12.5 ppm, root uptake by lettuce, 6 days after infestation, read-out: effect in at least one of the three categories (mortality, anti-feedancy, or growth inhibition)
From the text: Test compounds were applied by pipette from 10,000 ppm DMSO stock solutions into 24-well plates and mixed with agar. Lettuce seeds were placed on the agar and the multi well plate was closed by another plate which contains also agar. After 7 days the roots have absorbed the compound and the lettuce has grown into the lid plate. The lettuce leafs were now cut off into the lid plate. Spodoptera eggs were pipetted through a plastic stencil on a humid gel blotting paper and the plate closed with it. The samples were assessed for mortality, anti-feedant effect and growth inhibition in comparison to untreated samples 6 days after infestation.

[7] = test system: Myzus persicae (Green Peach Aphid); experiment: Activity against Myzus persicae, sprayed sunflower leaf discs; conditions: foliar, 144 h, application rate of 200 ppm, aphid population of mixed ages, 6 days after infestation
Procedure: Sunflower leaf discs were placed on agar in a 24-well microtiter plate and sprayed with aqueous test solutions prepared from 10,000 ppm DMSO stock solutions. After drying, the leaf discs were infested with an aphid population of mixed ages. The samples were assessed for mortality 6 days after infestation.

[8] = test system: Myzus persicae (Green Peach Aphid); experiment: Activity against Myzus persicae, systemic via roots of pea seedlings; conditions: 144 h, test rate of 24 ppm, roots of pea seedlings in test solution, 6 days
Procedure: Roots of pea seedlings infested with an aphid population of mixed ages were placed directly in the aqueous test solutions prepared from 10,000 DMSO stock solutions. The samples were assessed for mortality 6 days after placing seedlings in test solutions.

[9] = test system: Thrips tabaci (Onion Thrips); experiment: Activity against Thrips tabaci, sprayed sunflower leaf discs; conditions: foliar, 144 h, application rate of 200 ppm, thrips population of mixed ages, 6 days after infestation
Procedure: Sunflower leaf discs were placed on agar in 24-well microtiter plates and sprayed with aqueous test solutions prepared from 10,000 ppm DMSO stock solutions. After drying the leaf discs were infested with a thrips population of mixed ages. The samples were assessed for mortality 6 days after infestation.

CCSc1cc(-n2cccn2)cnc1-c1nnc(-c2cc(C(F)(F)F)ccn2)n1C [Compound P3, 3-ethylsulfanyl-2-[4-methyl-5-[4-(trifluoromethyl)-2-pyridyl]-1,2,4-triazol-3-yl]-5-pyrazol-1-yl-pyridine]
≥ 80%: mortality at 200 ppm [1] | percent effect (mortality or growth inhibition) at 200 ppm [2]

CCSc1cc(-c2ncccn2)cnc1-c1nnc(-c2cc(C(F)(F)F)ccn2)n1C [Compound P8]
≥ 80%: percent effect (mortality or growth inhibition) at 200 ppm [3] | percent effect (mortality or growth inhibition) at 200 ppm [4] | mortality at 200 ppm [1]

CCS(=O)(=O)c1cc(-c2ncccn2)cnc1-c1nnc(-c2cc(C(F)(F)F)ccn2)n1C [Compound P9, 2-[5-ethylsulfonyl-6-[4-methyl-5-[4-(trifluoromethyl)-2-pyridyl]-1,2,4-triazol-3-yl]-3-pyridyl]pyrimidine]
≥ 80%: mortality at 200 ppm [5] | percent control (mortality, anti-feedancy or growth inhibition) at 12.5 ppm [6] | percent effect (mortality or growth inhibition) at 200 ppm [3] | percent effect (mortality or growth inhibition) at 200 ppm [4] | mortality at 200 ppm [7] | mortality at 24 ppm [8] | mortality at 200 ppm [1] | percent effect (mortality or growth inhibition) at 200 ppm [2]

C=Cc1cnc(-c2nnc(-c3cc(C(F)(F)F)ccn3)n2C)c(S(=O)(=O)CC)c1 [Compound P12, 3-ethylsulfonyl-2-[4-methyl-5-[4-(trifluoromethyl)-2-pyridyl]-1,2,4-triazol-3-yl]-5-vinyl-pyridine]
≥ 80%: mortality at 200 ppm [7] | mortality at 24 ppm [8]

C=C(OCC)c1cnc(-c2nnc(-c3cc(C(F)(F)F)ccn3)n2C)c(S(=O)(=O)CC)c1 [Compound P13]
≥ 80%: mortality at 200 ppm [5] | percent effect (mortality or growth inhibition) at 200 ppm [3] | percent effect (mortality or growth inhibition) at 200 ppm [4] | mortality at 200 ppm [7] | mortality at 200 ppm [1] | mortality at 200 ppm [9]

CCS(=O)(=O)c1cc(-n2ccc(C#N)n2)cnc1-c1nnc(-c2cc(C(F)(F)F)ccn2)n1C [Compound P16]
≥ 80%: mortality at 200 ppm [5] | percent control (mortality, anti-feedancy or growth inhibition) at 12.5 ppm [6] | percent effect (mortality or growth inhibition) at 200 ppm [3] | percent effect (mortality or growth inhibition) at 200 ppm [4] | mortality at 200 ppm [7]

CCS(=O)(=O)c1cc(-c2ncc(C#N)cn2)cnc1-c1nnc(-c2cc(C(F)(F)F)ccn2)n1C [Compound P20]
≥ 80%: mortality at 200 ppm [5] | percent control (mortality, anti-feedancy or growth inhibition) at 12.5 ppm [6] | percent effect (mortality or growth inhibition) at 200 ppm [3] | percent effect (mortality or growth inhibition) at 200 ppm [4] | mortality at 200 ppm [7] | percent effect (mortality or growth inhibition) at 200 ppm [2]

CCS(=O)(=O)c1cc(-c2cccc(C#N)n2)cnc1-c1nnc(-c2cc(C(F)(F)F)ccn2)n1C [Compound P21]
≥ 80%: mortality at 200 ppm [5] | percent control (mortality, anti-feedancy or growth inhibition) at 12.5 ppm [6] | percent effect (mortality or growth inhibition) at 200 ppm [3] | percent effect (mortality or growth inhibition) at 200 ppm [4] | mortality at 200 ppm [7] | mortality at 200 ppm [1] | percent effect (mortality or growth inhibition) at 200 ppm [2]

CCS(=O)(=O)c1cc(-n2ccc(Cl)n2)cnc1-c1nnc(-c2cc(C(F)(F)F)ccn2)n1C [Compound P28]
≥ 80%: mortality at 200 ppm [5] | percent control (mortality, anti-feedancy or growth inhibition) at 12.5 ppm [6] | percent effect (mortality or growth inhibition) at 200 ppm [3] | percent effect (mortality or growth inhibition) at 200 ppm [4] | mortality at 200 ppm [7] | mortality at 200 ppm [1] | percent effect (mortality or growth inhibition) at 200 ppm [2]

CCS(=O)(=O)c1cc([S+]([O-])C(F)(F)F)cnc1-c1nnc(-c2cc(C(F)(F)F)ccn2)n1C (centres unmarked) [Compound P36, 3-ethylsulfonyl-2-[4-methyl-5-[4-(trifluoromethyl)-2-pyridyl]-1,2,4-triazol-3-yl]-5-(trifluoromethylsulfinyl)pyridine]
≥ 80%: percent effect (mortality or growth inhibition) at 200 ppm [4] | mortality at 24 ppm [8]

CCS(=O)(=O)c1ccc(-c2ncccn2)nc1-c1nnc(-c2cc(C(F)(F)F)ccn2)n1C [Compound P39]
≥ 80%: mortality at 200 ppm [5] | percent control (mortality, anti-feedancy or growth inhibition) at 12.5 ppm [6] | percent effect (mortality or growth inhibition) at 200 ppm [3] | percent effect (mortality or growth inhibition) at 200 ppm [4] | mortality at 200 ppm [7] | mortality at 24 ppm [8] | percent effect (mortality or growth inhibition) at 200 ppm [2]

CCS(=O)(=O)c1cc(-n2cncn2)cnc1-c1nnc(-c2cc(C(F)(F)F)ncn2)n1C [Compound P46]
≥ 80%: percent effect (mortality or growth inhibition) at 200 ppm [4] | mortality at 200 ppm [7] | mortality at 24 ppm [8] | mortality at 200 ppm [1]

CCS(=O)(=O)c1ccc(-n2cncn2)nc1-c1nnc(-c2cc(C(F)(F)F)ncn2)n1C [Compound P47]
≥ 80%: percent effect (mortality or growth inhibition) at 200 ppm [4] | mortality at 200 ppm [7] | mortality at 24 ppm [8] | percent effect (mortality or growth inhibition) at 200 ppm [2]

CCS(=O)(=O)c1ccc(-c2cccc(F)c2)nc1-c1nnc(-c2cc(C(F)(F)F)ccn2)n1C [Compound P50, 3-ethylsulfonyl-6-(3-fluorophenyl)-2-[4-methyl-5-[4-(trifluoromethyl)-2-pyridyl]-1,2,4-triazol-3-yl]pyridine]
≥ 80%: mortality at 200 ppm [5] | percent control (mortality, anti-feedancy or growth inhibition) at 12.5 ppm [6] | percent effect (mortality or growth inhibition) at 200 ppm [3] | percent effect (mortality or growth inhibition) at 200 ppm [4] | mortality at 200 ppm [7] | mortality at 200 ppm [1] | percent effect (mortality or growth inhibition) at 200 ppm [2]

CCS(=O)(=O)c1cc(-c2cccc(F)c2)cnc1-c1nnc(-c2cc(C(F)(F)F)ncn2)n1C [Compound P52]
≥ 80%: mortality at 200 ppm [5] | percent control (mortality, anti-feedancy or growth inhibition) at 12.5 ppm [6] | percent effect (mortality or growth inhibition) at 200 ppm [3] | percent effect (mortality or growth inhibition) at 200 ppm [4] | mortality at 200 ppm [7] | mortality at 200 ppm [1] | percent effect (mortality or growth inhibition) at 200 ppm [2]

CCS(=O)(=O)c1ccc(-c2ncccn2)nc1-c1nnc(-c2cc(C(F)(F)F)ncn2)n1C [Compound P54]
≥ 80%: percent effect (mortality or growth inhibition) at 200 ppm [3] | percent effect (mortality or growth inhibition) at 200 ppm [4] | mortality at 200 ppm [7] | mortality at 24 ppm [8] | mortality at 200 ppm [1] | percent effect (mortality or growth inhibition) at 200 ppm [2]
